Data taken from US6258829A, “Cycloalka[b]pyridine-3-carbonylguanidine derivatives, process for producing the same, and drugs containing the same” (priority 1997, dated 2001).
Where a name gives a salt, the structure may show the parent alone. Read-outs that look alike come from different tables or passages of the source.

Assays:
[1] = target: T1, Na^+ /H^+ exchange transport (rat platelets) (Rattus norvegicus, UniProt P26431); experiment: Inhibition studies on Na^+ /H^+ exchange transport: swelling of rat platelets induced by sodium propionate; format: cell-based, rat (Wistar); settings: rat platelet swelling, sodium propionate buffer pH 6.7, 20 seconds; 300 μM amiloride = 100% inhibition; read-out: IC5O value (inhibitory actions of test compounds on Na^+ /H^+ exchange transport)
T1 construct: the thus collected supernatant was used as platelet rich plasma; endogenous in cells; host or cells: platelets (platelet rich plasma) of Wistar rat
T1 sequence (P26431 whole entry): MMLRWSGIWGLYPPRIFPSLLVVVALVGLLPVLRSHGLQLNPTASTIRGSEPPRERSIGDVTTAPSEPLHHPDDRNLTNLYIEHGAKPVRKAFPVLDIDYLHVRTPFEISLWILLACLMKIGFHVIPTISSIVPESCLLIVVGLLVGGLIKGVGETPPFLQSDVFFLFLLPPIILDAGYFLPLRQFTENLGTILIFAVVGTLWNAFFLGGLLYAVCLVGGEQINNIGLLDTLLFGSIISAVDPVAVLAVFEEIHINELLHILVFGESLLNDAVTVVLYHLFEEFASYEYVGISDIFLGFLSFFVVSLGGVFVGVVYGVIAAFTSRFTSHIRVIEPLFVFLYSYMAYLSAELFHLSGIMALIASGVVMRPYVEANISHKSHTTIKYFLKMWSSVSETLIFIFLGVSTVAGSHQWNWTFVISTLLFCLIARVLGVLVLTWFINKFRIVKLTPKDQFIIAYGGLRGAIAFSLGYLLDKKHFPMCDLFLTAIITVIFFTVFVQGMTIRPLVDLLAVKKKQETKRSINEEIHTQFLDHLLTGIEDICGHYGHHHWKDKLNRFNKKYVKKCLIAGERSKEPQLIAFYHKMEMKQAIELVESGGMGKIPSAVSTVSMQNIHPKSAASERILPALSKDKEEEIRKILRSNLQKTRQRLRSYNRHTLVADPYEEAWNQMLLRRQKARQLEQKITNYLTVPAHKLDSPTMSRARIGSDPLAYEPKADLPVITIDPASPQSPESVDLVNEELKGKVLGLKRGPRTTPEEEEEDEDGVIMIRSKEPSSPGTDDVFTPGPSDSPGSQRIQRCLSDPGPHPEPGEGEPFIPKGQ
Procedure: The Na^+ /H^+ exchange transport inhibitory activity was measured in accordance with the method of Scholz et al. [Br. J. Pharmacol., 109, 562 (1993)], using the swelling of rat platelets induced by sodium propionate as an index.
Under ether anesthesia, blood sample (8 ml) was collected from the abdominal aorta of Wistar rat and mixed with 1 ml of acid citrate dextrose as an anticoagulant. The resulting mixture was immediately centrifuged at 90×g for 10 minutes, and the thus collected supernatant was used as platelet rich plasma. Next, the thus prepared platelet rich plasma (10×10^6 platelets/50 μl) was added to 250 μl of 140 mM sodium propionate buffer (pH 6.7, 1% dimethyl sulfoxide in final concentration) containing each test compound dissolved in dimethyl sulfoxide, and the decrease in absorbance caused by the swelling of platelets was periodically measured using Hema-Tracer (manufactured by Nk).
The decreased absorbance ratio 20 seconds after the addition of platelet rich plasma was measured as the Na^+ /H^+ exchange activity, and the inhibitory activity of each test compound was expressed as relative activity when the action of 300 μM amiloride was defined as 100% inhibition.
In this case, each test result was evaluated from 50% inhibition concentration (IC50 value) by using probit methods.

[2] = tested on: Na^+ /H^+ exchange transport; settings: background statement, Circulation, 79, 1257 (1989); cited from earlier work
[3] = background statement; cited from earlier work
male SD rats [4] = tested on: male SD rats; set-up: species or system rat (SD); settings: rat, in vivo, iv, 100 mg/kg
male SD rats [5] = tested on: male SD rats; set-up: species or system rat (SD); settings: rat, in vivo, iv, 10 mg/kg

Compound | IC50 [1] | further results
COc1nc2c(cc1C(=O)N=C(N)N)CCCCC2 [Compound I, 2-Methoxy-6,7,8,9-tetrahydro-5H-cyclohepta[b]pyridine-3-carbonylguanidine] | ≥ 1000 nM | 
NC(N)=NC(=O)c1cc2c(nc1-c1cccnc1)CCCCC2 [Compound J, 2-(3-Pyridyl)-6,7,8,9-tetrahydro-5H-cyclohepta[b]pyridine-3-carbonylguanidine] | ≥ 1000 nM | 
Cc1nc2c(cc1C(=O)N=C(N)N)CCCC=C2 [Compound K, 2-Methyl-6,7-dihydro-5H-cyclohepta[b]pyridine-3-carbonylguanidine] | ≤ 99 nM | 
N=C(N)NC(=O)c1nc(Cl)c(N)nc1N [amiloride] |  | Na^+ /H^+ exchange transport inhibitory action [2]: has a Na^+ /H^+ exchange transport inhibitory action; accompanying actions [3]: accompanies hypotensive action and salt excretion action; anti-arrhythmic action [3]: weak
Cc1nc2c(cc1C(=O)N=C(N)N)CCCC=C2 [maleic acid salt of the compound (K), 2-Methyl-6,7-dihydro-5H-cyclohepta[b]pyridine-3-carbonylguanidine maleate] |  | death cases (male SD rats [4]): no death cases were found; toxic changes attributable to the compound (K) (male SD rats [4]): no toxic changes attributable to the compound (K) were observed; death cases (male SD rats [5]): no death cases were found; toxic changes attributable to the compound (K) (male SD rats [5]): no toxic changes attributable to the compound (K) were observed

Further lines, with some results ahead:

IC50 [1] | Compound | further results
100 to 990 nM | Cc1nc2c(cc1C(=O)N=C(N)N)CCCC2O (stereo not drawn) [Compound A, 8-Hydroxy-2-methyl-5,6,7,8-tetrahydrocyclohexa[b]pyridine-3-carbonylguanidine] | 
≤ 99 nM | Cc1nc2c(cc1C(=O)N=C(N)N)CC(C)CC2 (stereo not drawn) [Compound B, 2,6-Dimethyl-5,6,7,8-tetrahydrocyclohexa[b]pyridine-3-carbonylguanidine] | 
≤ 99 nM | CCc1nc2c(cc1C(=O)N=C(N)N)CCCCC2 [Compound C, 2-Ethyl-6,7,8,9-tetrahydro-5H-cyclohepta[b]pyridine-3-carbonylguanidine] | 
100 to 990 nM | Cc1nc2c(cc1C(=O)N=C(N)N)C(O)CCCC2 (stereo not drawn) [Compound D, 5-Hydroxy-2-methyl-6,7,8,9-tetrahydro-5H-cyclohepta[b]pyridine-3-carbonylguanidine] | 
≤ 99 nM | Cc1nc2c(cc1C(=O)N=C(N)N)CCCCC2C (stereo not drawn) [Compound E, 2,9-Dimethyl-6,7,8,9-tetrahydro-5H-cyclohepta[b]pyridine-3-carbonylguanidine] | 
≤ 99 nM | COC1CCCCc2cc(C(=O)N=C(N)N)c(C)nc21 (stereo not drawn) [Compound F, 9-Methoxy-2-methyl-6,7,8,9-tetrahydro-5H-cyclohepta[b]pyridine-3-carbonylguanidine] | 
100 to 990 nM | NC(N)=NC(=O)c1cc2c(nc1C(F)(F)F)CCCCC2 [Compound G, 2-Trifluoromethyl-6,7,8,9-tetrahydro-5H-cyclohepta[b]pyridine-3-carbonylguanidine] | 
≤ 99 nM | NC(N)=NC(=O)c1cc2c(nc1Cl)CCCCC2 [Compound H, 2-Chloro-6,7,8,9-tetrahydro-5H-cyclohepta[b]pyridine-3-carbonylguanidine] | 
